According to patent US20260092039A1, “DUAL INHIBITORS FOR THE TREATMENT OF ALZHEIMER'S DISEASE” (UNIVERSITAT DE BARCELONA, priority 2023, published 2026):

Experiments:
[1] = Parallel artificial membrane permeation assay for blood-brain barrier (PAMPA-BBB); assay type: in vitro ADME, porcine; details: for Papp: pig, PBS:EtOH (70:30), read-out: Blood-brain barrier permeability Pe; for CNS prediction: predictive penetration in the CNS from Pe
Method: A parallel artificial membrane permeation assay for blood-brain barrier (PAMPA-BBB) was used to evaluate the brain penetration of compounds of formula I, following the method described by L. Di et al., “High throughput artificial membrane permeability assay for blood-brain barrier”, European Journal of Medicinal Chemistry 2003, vol. 38. pp. 223-232. The in vitro permeability (Pe) of the test compounds through a lipid extract of porcine brain membrane was determined. Assayed compounds were tested using a mixture of PBS:EtOH (70:30). Assay validation was made by comparing the experimental and reported permeability values of a set of fourteen commercial drugs and a lineal correlation between experimental and reported permeability values of the fourteen commercial drugs was obtained (y=1.678 x−1.447; R^2=0.9313). From this equation and taking into account the limits established by Di et al. for BBB permeation, the ranges of permeability were established, as follows. Compounds of high BBB permeation (CNS+): Pe (10^−6 cm s^−1)>5.26; compounds of low BBB permeation (CNS−): Pe (10^−6 cm s^−1)<1.91; and compounds of uncertain BBB permeation (CNS+/−): 5.26>Pe (10^−6 cm s^−1)>1.91. The permeability results are averages of three different experiments in triplicate and a predictive penetration in the CNS is also given (Table 5).

[2] = test system: primary mouse cortical neurons; test: LDH toxicity assay in mouse primary cortical neurons; assay type: cell-based
Method: The compounds were diluted from 250 mM DMSO stocks to a 100 mM stock in DMSO. Thereafter, compounds were diluted to 100 μM, 20 μM, 5 μM, 1 μM, 0.2 μM, 0.05 μM, 0.01 μM and 0.001 μM dilution in medium, so that the final DMSO concentration in the well was 0.1% for all conditions. Stock solutions were stored at −20° C. until further use.
Isolation and treatment of primary mouse cortical neurons: Primary cortical neurons were prepared from timed pregnant wild-type C57BL/6JRccHsd mice at E16.5-E18. Animals were sacrificed by carbon dioxide and embryos were dissected in Calcium and Magnesium free Hanks Balanced Salt Solution (CMF-HBSS) containing 15 mM HEPES and 10 mM NaHCO3, pH 7.2. Embryos were decapitated, skin and skull gently removed and cortical hemispheres were separated. After removing meninges and brain stem, the cortex was isolated, chopped with a sterile razor blade in Chop solution (Hibernate-E without Calcium containing 2% B-27) and digested in 2 mg/mL papain (Worthington) dissolved in Hibernate-E without Calcium for 30 min at 30° C. Cortices were triturated for 10-15 times with a fire-polished silanized Pasteur pipette in Hibernate-E without Calcium containing 2% B-27, 0.01% DNaseI, 1 mg/mL BSA, and 1 mg/mL Ovomucoid Inhibitor. Undispersed pieces were allowed to settle by gravity for 1 min and the supernatant was centrifuged for 3 min at 228 g. The pellet was resuspended in Hibernate-E containing 2% B-27, 0.01% DNaseI, 1 mg/mL BSA, 1 mg/mL Ovomucoid Inhibitor and diluted with Hibernate-E containing 2% B-27. After the second centrifugation step (3 min at 228 g), the pellet was resuspended in nutrition medium without glutamate (Neurobasal, 2% B-27, 0.5 mM glutamine, 1% Penicillin-Streptomycin). Cells were counted in a hemacytometer and seeded in nutrition medium on poly-D-lysine pre-coated plates. Cells were cultured at 37° C.; 95% humidity and 5% CO2. All wells were handled the same way. On DIV8, cells were treated with the compounds for the evaluation of the neurotoxic effect. On DIV9, the MTT and LDH assays were performed as described below. The experiments were performed in six technical replicates for all groups per experiment.
LDH toxicity assay: Supernatants of cells were subjected to the lactate dehydrogenase (LDH) toxicity assay by using the Cytotoxicity Detection Kit (Roche Diagnostics, Cat. No: 11 644 793 001). Seventy μL of cell culture supernatant was transferred to clear 96-well plates. Seventy μL freshly prepared reaction mixture was added to each well and the mixture was incubated for 20 to 30 min at room temperature protected from light. Absorbance was measured at 492 nm and 620 nm as reference wavelength. Cell death was expressed as optical density (OD). Values were calculated as percent of control values (vehicle control).

[3] = target: T1, recombinant human sEH (hsEH) (Homo sapiens, UniProt P34913); test: In vitro determination of sEH inhibitory activity (fluorescent PHOME assay)
T1 sequence (P34913 1-555): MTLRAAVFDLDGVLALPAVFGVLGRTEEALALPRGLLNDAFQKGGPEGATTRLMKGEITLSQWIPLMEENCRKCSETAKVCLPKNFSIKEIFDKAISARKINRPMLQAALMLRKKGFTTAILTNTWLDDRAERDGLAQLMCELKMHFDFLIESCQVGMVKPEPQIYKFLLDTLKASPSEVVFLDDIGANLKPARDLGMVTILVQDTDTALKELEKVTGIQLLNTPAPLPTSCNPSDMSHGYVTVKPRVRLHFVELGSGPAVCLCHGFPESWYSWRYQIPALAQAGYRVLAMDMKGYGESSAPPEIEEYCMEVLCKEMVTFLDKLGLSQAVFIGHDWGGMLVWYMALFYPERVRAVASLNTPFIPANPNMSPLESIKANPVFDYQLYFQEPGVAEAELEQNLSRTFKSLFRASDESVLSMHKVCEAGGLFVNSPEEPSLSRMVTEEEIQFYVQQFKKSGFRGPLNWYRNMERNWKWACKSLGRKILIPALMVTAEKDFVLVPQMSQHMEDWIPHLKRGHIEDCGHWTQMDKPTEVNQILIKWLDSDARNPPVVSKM
Method: Control compound (TPPU): N-[1-(1-Oxopropyl)-4-piperidinyl]-N′-[4-(trifluoromethoxy)phenyl]urea.
Five μL of DMSO were added to background and positive control wells, and then 5 μL of inhibitor solution were added in the inhibitor wells. Five μL of the solution of hsEH were added to the positive control and inhibitor wells and the mixture was stirred. A 1/21 dilution of the solution of PHOME with assay buffer was prepared according to the final volume required, and then 105 μL of each well were added. The plate was carefully shaken for 10 seconds and was incubated for 5 minutes at room temperature. […] The intensity of fluorescence was used to analyze and calculate the IC50 values. Results were obtained by regression analysis from at least three data points in a linear region of the curve. IC50 values are average of minimum three independent replicates.

[4] = target: T2, human recombinant glutaminyl cyclase (hQC) (Homo sapiens, UniProt Q16769); test: In vitro determination of human QC inhibitory activity (SensoLyte Green Glutaminyl Cyclase Activity Assay Kit); assay type: biochemical
T2 construct: purchased Eurogentec AS-72230
Method: Basic statistical analysis was performed.

T2 sequence (Q16769 29-361): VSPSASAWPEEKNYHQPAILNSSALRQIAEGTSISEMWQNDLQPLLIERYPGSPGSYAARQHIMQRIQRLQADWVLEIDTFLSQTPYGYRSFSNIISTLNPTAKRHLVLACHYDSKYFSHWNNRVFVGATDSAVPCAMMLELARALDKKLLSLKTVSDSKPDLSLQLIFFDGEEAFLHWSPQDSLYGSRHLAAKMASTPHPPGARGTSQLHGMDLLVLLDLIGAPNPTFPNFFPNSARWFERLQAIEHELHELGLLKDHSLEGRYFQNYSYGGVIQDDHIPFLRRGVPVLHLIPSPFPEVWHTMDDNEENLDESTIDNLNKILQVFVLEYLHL

Row | Compound | Papp [1] | CNS prediction [1] | LDH toxicity assay (cell death), primary cortical neurons ([2]; compound 0.001 μM) | LDH toxicity assay (cell death), primary cortical neurons ([2]; compound 0.01 μM) | LDH toxicity assay (cell death), primary cortical neurons ([2]; compound 0.05 μM) | LDH toxicity assay (cell death), primary cortical neurons ([2]; compound 0.2 μM) | LDH toxicity assay (cell death), primary cortical neurons ([2]; compound 1 μM) | LDH toxicity assay (cell death), primary cortical neurons ([2]; compound 5 μM) | LDH toxicity assay (cell death), primary cortical neurons ([2]; compound 20 μM) | LDH toxicity assay (cell death), primary cortical neurons ([2]; compound 100 μM) | IC50 [3] | IC50 [4]
1 | CCC12CC3CC(C1)CC(NC(=O)NCCCn1cncc1C)(C3)C2 [Id, 1-(3-ethyladamantan-1-yl)-3-[3-(5-methyl-1H-imidazol-1-yl)propyl]urea] | > 30 ×10⁻⁶ cm/s | CNS+ (Compounds of high BBB permeation (CNS+): Pe (10^−6 cm s^−1)>5.26) | 114 % of vehicle control | 104 % of vehicle control | 100 % of vehicle control | 100 % of vehicle control | 99 % of vehicle control | 102 % of vehicle control | 109 % of vehicle control | 157 % of vehicle control | 0.0033 µM | 0.57 µM
2 | Cc1cncn1CCCNC(=O)NC1C2CC3CC(C2)CC1C3 (stereo not drawn) [Ii, 1-(adamantan-2-yl)-3-[3-(5-methyl-1H-imidazol-1-yl)propyl]urea] | > 30 ×10⁻⁶ cm/s | CNS+ (Compounds of high BBB permeation (CNS+): Pe (10^−6 cm s^−1)>5.26) | 99 % of vehicle control | 97 % of vehicle control | 97 % of vehicle control | 94 % of vehicle control | 101 % of vehicle control | 100 % of vehicle control | 97 % of vehicle control | 113 % of vehicle control | 0.0043 µM | 0.189 µM
3 | Cc1cncn1CCCNC(=O)NC12CC3CC(CC(C)(C3)O1)C2 [Ir, 1-[3-(5-methyl-1H-imidazol-1-yl)propyl]-3-(3-methyl-2-oxaadamantan-1-yl)urea] | 6.9 ×10⁻⁶ cm/s | CNS+ (Compounds of high BBB permeation (CNS+): Pe (10^−6 cm s^−1)>5.26) | 100 % of vehicle control | 100 % of vehicle control | 101 % of vehicle control | 101 % of vehicle control | 100 % of vehicle control | 100 % of vehicle control | 101 % of vehicle control | 107 % of vehicle control | 0.86 µM | 0.139 µM
4 | CCC12CC3CC(C1)CC(NC(=O)NCCCn1cncc1C)(C3)O2 [Is, 1-(3-ethyl-2-oxaadamantan-1-yl)-3-[3-(5-methyl-1H-imidazol-1-yl)propyl]urea] | > 30 ×10⁻⁶ cm/s | CNS+ (Compounds of high BBB permeation (CNS+): Pe (10^−6 cm s^−1)>5.26) | 96 % of vehicle control | 97 % of vehicle control | 99 % of vehicle control | 98 % of vehicle control | 107 % of vehicle control | 102 % of vehicle control | 113 % of vehicle control | 107 % of vehicle control | 2.8 µM | 0.096 µM
